Columns and labels:
submissive rats = assay: Reduction of Submissive Behavior Model (RSBM) of depression, dominant-submissive rat food competition test; assay type: in vivo, Sprague-Dawley rats; conditions: 5 weeks, submissive rat treated
Description: In this study, the effects of COMPOUND #7 on dominant or submissive behavior in pairs of rats competing for food are examined. It has been shown that anti-manic drugs, including anticonvulsants, decrease dominance and antidepressant drugs reduce submissiveness. This model uses dominant behavior as a model of mania and submissive behavior as a model of depression. The dominance and submissiveness is defined in a competition test and measured as the relative success of two food-restricted rats to gain access to a feeder. Rats are randomly paired and placed in an apparatus allowing them to compete for a food reward. The dominant-submissive relationship develops over a 2-week period. The submissive or dominant animals in pairs selected after 2 weeks of training were treated orally […] (b.i.d.) with COMPOUND #7 at 3 or 30 mg/kg for 5 weeks. The partner of the drug-treated animal was treated with vehicle.
The objective of this study was to determine if COMPOUND #7 is active in the Reduction of Submissive Behavior Model (RSBM) of depression and the Reduction of Dominant Behavior Model (RDBM) of mania. Measurements were made at two doses (3 and 30 mg/kg) after oral twice a day (b.i.d.) administration. The effect of the drug in the RSBM was compared to the effect of fluoxetine (10 mg/kg) and vehicle (0.5% methylcellulose). The effect of the drug in the RDBM was compared with the effect of lithium (100 mg/kg) and vehicle (0.5% methylcellulose). The endpoints measured were the development of a significant reduction of submissive or dominant behavior and its time of onset.
The DSR developed by two rats competing for food uses the apparatus in FIG. 1.
In the experiments described in this report Sprague-Dawley rats weighing 160 to 180 g were used. Testing for the development of a DSR between paired rats begins with the random assignment of rats into pairs. […]
The test involves placing each member of a pair in opposite chambers of the testing apparatus. […] The test is conducted once a day over a 5-minute period and the time spent on the feeder by each animal is recorded. […]

male mice = assay: General behavior of male mice, visual observation using a checklist of behaviors; assay type: in vivo; conditions: for Number of Mice Affected: Decreased Open Field Activity / Number of Mice Affected: Decreased Startle Reflex / Number of Mice Affected: Extensor Limb Tone (hind limb) / Number of Mice Affected: Impaired Horizontal Screen Performance / Number of Mice Affected: Impaired Visual Placing Reflex / Number of Mice Affected: Locomotor Ataxia / Number of Mice Affected: Loss of Corneal Reflex / Number of Mice Affected: Loss of Pinnal Reflex / Number of Mice Affected: Loss of Righting Reflex / Number of Mice Affected: Passive Response to Handling / Number of Mice Affected: Reduced Skin Plasticity / Number of Mice Affected: Soft Body Tone / Number of Mice Affected: Tail Pinch Response, Absent: N = 3/group
Description: The effects of test compound on general behavior were evaluated by visual observation using a checklist of behaviors.

NC(=O)OC[C@@H](O)c1ccccc1Cl [COMPOUND #7]
Effect on submissive rat behavior (competitiveness, time spent at feeder) (submissive rats; 3 mg/kg b.i.d. p.o.): did not have any effect | Effect on submissive rat behavior (competitiveness, time spent at feeder) (submissive rats; 30 mg/kg b.i.d. p.o., vs vehicle-treated): significantly increased competitiveness | Number of Mice Affected: Decreased Open Field Activity (male mice; 40 mg/kg p.o., 1 h): 0 | Number of Mice Affected: Decreased Startle Reflex (male mice; 40 mg/kg p.o., 1 h): 0 | Number of Mice Affected: Extensor Limb Tone (hind limb) (male mice; 40 mg/kg p.o., 1 h): 0 | Number of Mice Affected: Impaired Horizontal Screen Performance (male mice; 40 mg/kg p.o., 1 h): 0 | Number of Mice Affected: Impaired Visual Placing Reflex (male mice; 40 mg/kg p.o., 1 h): 0 | Number of Mice Affected: Locomotor Ataxia (male mice; 40 mg/kg p.o., 1 h): 0 | Number of Mice Affected: Loss of Corneal Reflex (male mice; 40 mg/kg p.o., 1 h): 0 | Number of Mice Affected: Loss of Pinnal Reflex (male mice; 40 mg/kg p.o., 1 h): 0 | Number of Mice Affected: Loss of Righting Reflex (male mice; 40 mg/kg p.o., 1 h): 0 | Number of Mice Affected: Passive Response to Handling (male mice; 40 mg/kg p.o., 1 h): 0 | Number of Mice Affected: Reduced Skin Plasticity (male mice; 40 mg/kg p.o., 1 h): 0 | Number of Mice Affected: Soft Body Tone (male mice; 40 mg/kg p.o., 1 h): 0 | Number of Mice Affected: Tail Pinch Response, Absent (male mice; 40 mg/kg p.o., 1 h): 0 | Number of Mice Affected: Decreased Open Field Activity (male mice; 40 mg/kg p.o., 4 h): 0 | Number of Mice Affected: Decreased Startle Reflex (male mice; 40 mg/kg p.o., 4 h): 0 | Number of Mice Affected: Extensor Limb Tone (hind limb) (male mice; 40 mg/kg p.o., 4 h): 0 | Number of Mice Affected: Impaired Horizontal Screen Performance (male mice; 40 mg/kg p.o., 4 h): 0 | Number of Mice Affected: Impaired Visual Placing Reflex (male mice; 40 mg/kg p.o., 4 h): 0 | Number of Mice Affected: Locomotor Ataxia (male mice; 40 mg/kg p.o., 4 h): 0 | Number of Mice Affected: Loss of Corneal Reflex (male mice; 40 mg/kg p.o., 4 h): 0 | Number of Mice Affected: Loss of Pinnal Reflex (male mice; 40 mg/kg p.o., 4 h): 0 | Number of Mice Affected: Loss of Righting Reflex (male mice; 40 mg/kg p.o., 4 h): 0 | Number of Mice Affected: Passive Response to Handling (male mice; 40 mg/kg p.o., 4 h): 0 | Number of Mice Affected: Reduced Skin Plasticity (male mice; 40 mg/kg p.o., 4 h): 0 | Number of Mice Affected: Soft Body Tone (male mice; 40 mg/kg p.o., 4 h): 0 | Number of Mice Affected: Tail Pinch Response, Absent (male mice; 40 mg/kg p.o., 4 h): 0 | Number of Mice Affected: Decreased Open Field Activity (male mice; 100 mg/kg p.o., 1 h): 0 | Number of Mice Affected: Decreased Startle Reflex (male mice; 100 mg/kg p.o., 1 h): 0 | Number of Mice Affected: Extensor Limb Tone (hind limb) (male mice; 100 mg/kg p.o., 1 h): 0 | Number of Mice Affected: Impaired Horizontal Screen Performance (male mice; 100 mg/kg p.o., 1 h): 0 | Number of Mice Affected: Impaired Visual Placing Reflex (male mice; 100 mg/kg p.o., 1 h): 0 | Number of Mice Affected: Locomotor Ataxia (male mice; 100 mg/kg p.o., 1 h): 0 | Number of Mice Affected: Loss of Corneal Reflex (male mice; 100 mg/kg p.o., 1 h): 0 | Number of Mice Affected: Loss of Pinnal Reflex (male mice; 100 mg/kg p.o., 1 h): 0 | Number of Mice Affected: Loss of Righting Reflex (male mice; 100 mg/kg p.o., 1 h): 0 | Number of Mice Affected: Passive Response to Handling (male mice; 100 mg/kg p.o., 1 h): 0 | Number of Mice Affected: Reduced Skin Plasticity (male mice; 100 mg/kg p.o., 1 h): 0 | Number of Mice Affected: Soft Body Tone (male mice; 100 mg/kg p.o., 1 h): 0 | Number of Mice Affected: Tail Pinch Response, Absent (male mice; 100 mg/kg p.o., 1 h): 0 | Number of Mice Affected: Decreased Open Field Activity (male mice; 100 mg/kg p.o., 4 h): 0 | Number of Mice Affected: Decreased Startle Reflex (male mice; 100 mg/kg p.o., 4 h): 0 | Number of Mice Affected: Extensor Limb Tone (hind limb) (male mice; 100 mg/kg p.o., 4 h): 0 | Number of Mice Affected: Impaired Horizontal Screen Performance (male mice; 100 mg/kg p.o., 4 h): 0 | Number of Mice Affected: Impaired Visual Placing Reflex (male mice; 100 mg/kg p.o., 4 h): 0 | Number of Mice Affected: Locomotor Ataxia (male mice; 100 mg/kg p.o., 4 h): 0 | Number of Mice Affected: Loss of Corneal Reflex (male mice; 100 mg/kg p.o., 4 h): 0 | Number of Mice Affected: Loss of Pinnal Reflex (male mice; 100 mg/kg p.o., 4 h): 0 | Number of Mice Affected: Loss of Righting Reflex (male mice; 100 mg/kg p.o., 4 h): 0 | Number of Mice Affected: Passive Response to Handling (male mice; 100 mg/kg p.o., 4 h): 0 | Number of Mice Affected: Reduced Skin Plasticity (male mice; 100 mg/kg p.o., 4 h): 0 | Number of Mice Affected: Soft Body Tone (male mice; 100 mg/kg p.o., 4 h): 0 | Number of Mice Affected: Tail Pinch Response, Absent (male mice; 100 mg/kg p.o., 4 h): 0 | Behavioral or physical signs (general behavior) (male mice; 300 mg/kg p.o.): produced sedation | Number of Mice Affected: Decreased Open Field Activity (male mice; 300 mg/kg p.o., 1 h): 3 | Number of Mice Affected: Decreased Startle Reflex (male mice; 300 mg/kg p.o., 1 h): 3 | Number of Mice Affected: Extensor Limb Tone (hind limb) (male mice; 300 mg/kg p.o., 1 h): 3 | Number of Mice Affected: Impaired Horizontal Screen Performance (male mice; 300 mg/kg p.o., 1 h): 3 | Number of Mice Affected: Impaired Visual Placing Reflex (male mice; 300 mg/kg p.o., 1 h): 3 | Number of Mice Affected: Locomotor Ataxia (male mice; 300 mg/kg p.o., 1 h): 0 | Number of Mice Affected: Loss of Corneal Reflex (male mice; 300 mg/kg p.o., 1 h): 3 | Number of Mice Affected: Loss of Pinnal Reflex (male mice; 300 mg/kg p.o., 1 h): 3 | Number of Mice Affected: Loss of Righting Reflex (male mice; 300 mg/kg p.o., 1 h): 3 | Number of Mice Affected: Passive Response to Handling (male mice; 300 mg/kg p.o., 1 h): 3 | Number of Mice Affected: Reduced Skin Plasticity (male mice; 300 mg/kg p.o., 1 h): 3 | Number of Mice Affected: Soft Body Tone (male mice; 300 mg/kg p.o., 1 h): 3 | Number of Mice Affected: Tail Pinch Response, Absent (male mice; 300 mg/kg p.o., 1 h): 3 | Number of Mice Affected: Decreased Open Field Activity (male mice; 300 mg/kg p.o., 4 h): 2 | Number of Mice Affected: Decreased Startle Reflex (male mice; 300 mg/kg p.o., 4 h): 0 | Number of Mice Affected: Extensor Limb Tone (hind limb) (male mice; 300 mg/kg p.o., 4 h): 2 | Number of Mice Affected: Impaired Horizontal Screen Performance (male mice; 300 mg/kg p.o., 4 h): 2 | Number of Mice Affected: Impaired Visual Placing Reflex (male mice; 300 mg/kg p.o., 4 h): 0 | Number of Mice Affected: Locomotor Ataxia (male mice; 300 mg/kg p.o., 4 h): 2 | Number of Mice Affected: Loss of Corneal Reflex (male mice; 300 mg/kg p.o., 4 h): 0 | Number of Mice Affected: Loss of Pinnal Reflex (male mice; 300 mg/kg p.o., 4 h): 0 | Number of Mice Affected: Loss of Righting Reflex (male mice; 300 mg/kg p.o., 4 h): 0 | Number of Mice Affected: Passive Response to Handling (male mice; 300 mg/kg p.o., 4 h): 0 | Number of Mice Affected: Reduced Skin Plasticity (male mice; 300 mg/kg p.o., 4 h): 0 | Number of Mice Affected: Soft Body Tone (male mice; 300 mg/kg p.o., 4 h): 2 | Number of Mice Affected: Tail Pinch Response, Absent (male mice; 300 mg/kg p.o., 4 h): 0 | Behavioral or physical signs (general behavior) (male mice; doses up to 100 mg/kg p.o.): No behavioral or physical signs were observed

— patent publication US20080103199A1, “TREATMENT OF PERVASIVE DEVELOPMENTAL DISORDERS” (priority 2006, published 2008)
